Assay results published in ChEMBL document CHEMBL1159194, “Two pimarane diterpenoids from Ephemerantha lonchophylla and their evaluation as modulators of the multidrug resistance phenotype” (J Nat Prod, 1998).
pEC50: −log10 of the molar value. The source made the active and inactive calls. The calls are words filed in the database; no cut-off is given here.

Experiments:
[1] = biological target: ATP-dependent translocase ABCB1 (Homo sapiens, UniProt P08183); test: Inhibition of human MDR1 expressed in mouse B16/F10 cells assessed as increase in doxorubicin accumulation by fluorimetry; format: cell-based; settings: read-out: ED50 (the source's name)
Chain of ATP-dependent translocase ABCB1 (P08183 whole entry): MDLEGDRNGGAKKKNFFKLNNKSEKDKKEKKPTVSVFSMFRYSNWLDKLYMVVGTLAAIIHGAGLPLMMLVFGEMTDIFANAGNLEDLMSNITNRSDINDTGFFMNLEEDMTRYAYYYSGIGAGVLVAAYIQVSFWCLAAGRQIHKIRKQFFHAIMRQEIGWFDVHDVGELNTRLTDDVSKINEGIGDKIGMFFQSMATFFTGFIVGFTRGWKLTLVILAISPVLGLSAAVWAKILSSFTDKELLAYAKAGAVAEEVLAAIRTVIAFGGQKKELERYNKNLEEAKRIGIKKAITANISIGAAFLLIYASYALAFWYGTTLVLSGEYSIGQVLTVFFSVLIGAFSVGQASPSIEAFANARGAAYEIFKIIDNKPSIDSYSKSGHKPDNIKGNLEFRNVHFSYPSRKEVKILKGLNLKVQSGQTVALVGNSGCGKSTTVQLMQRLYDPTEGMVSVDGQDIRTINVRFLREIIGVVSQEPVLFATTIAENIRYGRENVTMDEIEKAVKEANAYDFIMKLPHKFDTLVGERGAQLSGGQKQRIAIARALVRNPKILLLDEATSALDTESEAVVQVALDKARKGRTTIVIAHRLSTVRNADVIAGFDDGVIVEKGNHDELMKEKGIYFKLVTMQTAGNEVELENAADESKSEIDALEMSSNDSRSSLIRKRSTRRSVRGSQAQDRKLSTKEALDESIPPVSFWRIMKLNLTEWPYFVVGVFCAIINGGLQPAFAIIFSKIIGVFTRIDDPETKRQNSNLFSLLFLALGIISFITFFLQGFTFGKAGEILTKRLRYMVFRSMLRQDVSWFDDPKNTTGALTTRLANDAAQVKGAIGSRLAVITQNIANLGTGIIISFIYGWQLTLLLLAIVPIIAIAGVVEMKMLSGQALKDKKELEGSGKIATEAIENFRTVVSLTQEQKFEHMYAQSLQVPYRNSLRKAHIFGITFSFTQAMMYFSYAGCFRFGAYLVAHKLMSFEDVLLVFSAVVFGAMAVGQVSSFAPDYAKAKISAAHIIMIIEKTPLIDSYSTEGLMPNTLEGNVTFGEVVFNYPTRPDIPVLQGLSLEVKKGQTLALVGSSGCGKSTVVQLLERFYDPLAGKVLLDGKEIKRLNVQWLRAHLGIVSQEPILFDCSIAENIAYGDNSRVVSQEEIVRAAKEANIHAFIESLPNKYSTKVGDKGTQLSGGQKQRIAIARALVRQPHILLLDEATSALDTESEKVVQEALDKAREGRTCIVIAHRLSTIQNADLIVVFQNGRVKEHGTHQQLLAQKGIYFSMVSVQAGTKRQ

B16-F10 = test: Effect on doxorubicin accumulation in mouse B16/F10 cells by fluorimetry; format: functional, cell-based

## CC1(C)C(=O)C(O)=C[C@]2(C)[C@H]3CC[C@@](C)(C(=O)CO)C=C3CC[C@@H]12 [LONCHOPHYLLOID A]
[1]
  pEC50: 3.71
B16-F10
  Activity: inactive

## CC1(C)[C@@H](O)CC[C@]2(C)[C@H]3CC[C@@](C)(C(=O)CO)C=C3CC[C@@H]12 [LONCHOPHYLLOID B]
[1]
  pEC50: 3.71
B16-F10
  Activity: inactive
